Data: US9988381B2, “Five-member-heterocycle fused pyridine compounds, method of producing the same, and use thereof” (SHANGHAI INSTITUTE OF MATERIA MEDICA, CHINESE ACADEMY OF …, priority 2013, dated 2018)
Where two headings read alike, the source gives them in different places.

Legend:
[1] = target: T1, c-Met kinase domain recombinant protein (Homo sapiens, UniProt P08581); assay: biochemical; conditions: read-out: Inhibition rate at 10 μM (%)
T1 construct: 50 μL diluted solution of c-Met kinase domain recombinant protein in reaction buffer was added to initiate the reaction
T1 sequence (P08581 1078-1345 limits assumed): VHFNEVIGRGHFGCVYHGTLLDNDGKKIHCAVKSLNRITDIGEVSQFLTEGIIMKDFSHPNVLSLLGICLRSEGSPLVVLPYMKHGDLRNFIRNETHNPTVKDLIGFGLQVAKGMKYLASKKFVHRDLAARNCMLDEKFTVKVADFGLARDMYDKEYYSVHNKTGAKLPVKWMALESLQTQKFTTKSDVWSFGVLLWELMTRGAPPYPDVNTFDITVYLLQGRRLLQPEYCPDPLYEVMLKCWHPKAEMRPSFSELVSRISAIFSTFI
Method in brief: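 ELISA on plates coated with Poly(Glu,Tyr)4:1 (20 μg/mL), kinase reaction with c-Met kinase domain and ATP in HEPES pH 7.4 buffer with MgCl2, MnCl2, Na3VO4 and DTT, 1 h at 37 °C. Phosphotyrosine detected with PY99 and HRP secondary antibody, read at 490 nm; inhibition rate calculated against ATP-free control.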

[2] = target: T1, c-Met kinase domain recombinant protein; assay: biochemical; conditions: for inhibition at 1 µM: read-out: Average inhibition rate at 1 μM (%); for inhibition at 10 µM: read-out: Average inhibition rate at 10 μM (%); for inhibition at 0.1 µM: read-out: Average inhibition rate at 0.1 μM (%)
Method in brief: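 ELISA on plates coated with Poly(Glu,Tyr)4:1 (20 μg/mL coating solution). Recombinant c-Met kinase domain reacted with 5 μM ATP in HEPES pH 7.4 with Mg/Mn, vanadate and DTT for 1 hour at 37° C. Phosphotyrosine was detected with PY99 and HRP secondary antibody, read at 490 nm, and IC50 was taken from a four-parameter fit.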

EBC-1 cell = assay: Test III: growth inhibition of non-small cell carcinoma EBC-1 cell (SRB); type: cell-based; conditions: Homo sapiens; for inhibition at 0.2 µM: read-out: Cell proliferation inhibition rate at 200 nM (%); for inhibition at 1 µM: read-out: Cell proliferation inhibition rate at 1 μM (%)
Method: Assays on the growth inhibition of the compounds against gastric tumor cell MKN45, non-small cell carcinoma EBC-1 cell (both are MET persistent activated cell lines due to MET gene amplification, and are Met dependent tumor cell lines, MKN45 cell was purchased from JCRB, Japan, EBC-1 cell was purchased from ATCC, USA) were detected using sulforhodamine B (SRB) staining. […] After incubation with compound for 72 hours, the incubation was terminated, adherent cells were retained and medium was discarded, 10% (w/v) trichloroacetic acid (100 μL pre well) was added, the cells were fixed at 4° C. for 1 hour, then rinsed with distilled water for 5 times, after dried at room temperature, SRB solution (4 mg/mL, dissolved in 1% glacial acetic acid) was added at 100 μL per well, incubated and stained at room temperature for 15 minutes, then rinsed with 1% glacial acetic acid for 5 times to remove any unbound SRB, dried at room temperature, then 10 mM Tris solution was added at 100 μL per well, the optical density (OD) value at 515 nm was measured using VERSMax microplate reader.
Experiments were conducted in duplicates. IC50 value was calculated by fitting the data for a four parameter fit using inhibition curve, the results are shown below in Table 2.

SMILES	inhibition at 10 µM [1]	inhibition at 1 µM [2]	inhibition at 10 µM [2]	inhibition at 0.1 µM [2]	IC50 [2]	inhibition at 0.2 µM (EBC-1 cell; EBC-1, 72 h)	inhibition at 1 µM (EBC-1 cell; EBC-1, 72 h)	inhibition at 0.2 µM (EBC-1 cell; EBC-1, 200 nM, 72 hours)	inhibition at 1 µM (EBC-1 cell; EBC-1, 1 μM, 72 hours)
Cn1cc(-c2cnc3cnn(S(=O)(=O)c4cnc5ccc(-c6ccccc6C(F)(F)F)cn45)c3c2)cn1 [Example 84, 1-{[6-(2-trifluoromethylphenyl)-imidazo[1,2-a]pyridine]-3-sulfonyl}-6-[(1-methyl)-4-pyrazolyl]-1-H-pyrazolo[4,3-b]pyridine]	> 71.5%	41.2%	73.5%	–	–	–	–	–	–
Cn1cc(-c2cnc3cnn(S(=O)(=O)c4cnc5ccc(-c6cc(F)c(F)c(F)c6)cn45)c3c2)cn1 [Example 88, 1-{[6-(3,4,5-trifluorophenyl)-imidazo[1,2-a]pyridine]-3-sulfonyl}-6-[(1-methyl)-4-pyrazolyl]-1-H-pyrazolo[4,3-b]pyridine]	> 70.2%	59.4%	64.5%	1.1%	–	–	–	–	–
CC(C)c1c(-c2cnn(C)c2)cnc2cnn(S(=O)(=O)c3cnc4ccc(-c5cnn(C)c5)cn34)c12 [Example 103, 1-{(6-[(1-methyl)-4-pyrazolyl]-imidazo[1,2-a]pyridine)-3-sulfonyl}-6-[(1-methyl)-4-pyrazolyl]-7-isopropyl-1-H-pyrazolo[4,3-b]pyridine]	–	101%	–	98.5%	3.2 ± 0.3 nM	80.9%	92.7%	–	–
O=S(=O)(c1cnc2ccc(-c3cn[nH]c3)cn12)n1ncc2ncc(-c3cn[nH]c3)cc21 [Example 104, 1-{[6-(4-pyrazolyl)-imidazo[1,2-a]pyridine]-3-sulfonyl}-6-(4-pyrazolyl)-1-H-pyrazolo[4,3-b]pyridine]	–	100%	–	99.8%	2.1 ± 0.6 nM	85.7%	89.2%	–	–
Cn1cc(-c2cnc3cnn(S(=O)(=O)c4cnc5ccc(-c6cn[nH]c6)cn45)c3c2)cn1 [Example 105, 1-{[6-(4-pyrazolyl)-imidazo[1,2-a]pyridine]-3-sulfonyl}-6-[(1-methyl)-4-pyrazolyl]-1-H-pyrazolo[4,3-b]pyridine]	–	100%	–	97.8%	2.6 ± 0.4 nM	77.7%	91.5%	–	–
Cn1cc(-c2cnc3[nH]cc(S(=O)(=O)n4ncc5cccnc54)c3c2)cn1 [Example 107, 1-{(5-[(1-methyl)-4-pyrazolyl])-1-H-pyrrolo [2,3-b]pyridine-3-sulfonyl}-1-H-pyrazolo[3,4-b]pyridine]	–	88.2%	–	29.1%	–	–	–	18.9%	18.1%
CCOc1cccc(-c2cnc3cnn(S(=O)(=O)c4cnc5ccc([N+](=O)[O-])cn45)c3c2)c1 [Example 113, 1-[(6-nitro-imidazo[1,2-a]pyridine)-3-sulfonyl]-6-(3-ethoxyphenyl)-1-H-pyrazolo[4,3-b]pyridine]	–	97.7%	–	48.6%	–	–	–	7.9%	9%
COc1ccc2ncc(S(=O)(=O)n3ncc4ncc(-c5cnn(C)c5)cc43)n2c1 [Example 121, 1-[(6-methoxy-imidazo[1,2-a]pyridine)-3-sulfonyl]-6-[(1-methyl)-4-pyrazolyl]-1-H-pyrazolo[4,3-b]pyridine]	–	101%	–	99%	9 ± 1 nM	91.6%	92.5%	–	–

Second part, led by results:

inhibition at 10 µM [1]	inhibition at 1 µM [2]	inhibition at 10 µM [2]	inhibition at 0.1 µM [2]	IC50 [2]	SMILES	inhibition at 0.2 µM (EBC-1 cell; EBC-1, 72 h)	inhibition at 1 µM (EBC-1 cell; EBC-1, 72 h)	inhibition at 0.2 µM (EBC-1 cell; EBC-1, 200 nM, 72 hours)	inhibition at 1 µM (EBC-1 cell; EBC-1, 1 μM, 72 hours)
> 71.2%	30.1%	79.4%	–	–	CN(C)c1ccc(-c2ccc3ncc(S(=O)(=O)n4ncc5ncc(-c6cnn(C)c6)cc54)n3c2)cc1 [Example 85, 1-{[6-(4-dimethylaminophenyl)-imidazo[1,2-a]pyridine]-3-sulfonyl}-6-[(1-methyl)-4-pyrazolyl]-1-H-pyrazolo[4,3-b]pyridine]	–	–	–	–
> 67.9%	66.6%	77.8%	45%	–	Cn1cc(-c2cnc3cnn(S(=O)(=O)c4cnc5ccc(-c6cccc(F)c6)cn45)c3c2)cn1 [Example 86, 1-{[6-(3-fluorophenyl)-imidazo[1,2-a]pyridine]-3-sulfonyl}-6-[(1-methyl)-4-pyrazolyl]-1-H-pyrazolo[4,3-b]pyridine]	–	–	–	–
> 76.8%	72.7%	72.5%	33.8%	–	Cn1cc(-c2cnc3cnn(S(=O)(=O)c4cnc5ccc(-c6ccc(F)cc6F)cn45)c3c2)cn1 [Example 87, 1-{[6-(2,4-difluorophenyl)-imidazo[1,2-a]pyridine]-3-sulfonyl}-6-[(1-methyl)-4-pyrazolyl]-1-H-pyrazolo[4,3-b]pyridine]	–	–	–	–
> 71.7%	79.9%	83.4%	45.3%	–	COc1ccc(-c2ccc3ncc(S(=O)(=O)n4ncc5ncc(-c6cnn(C)c6)cc54)n3c2)cc1 [Example 89, 1-{[6-(4-methoxyphenyl)-imidazo[1,2-a]pyridine]-3-sulfonyl}-6-[(1-methyl)-4-pyrazolyl]-1-H-pyrazolo[4,3-b]pyridine]	–	–	–	–
> 71.9%	79.1%	78.9%	82.8%	–	Cn1cc(-c2cnc3cnn(S(=O)(=O)c4cnc5ccc(-c6ccc(C#N)cc6)cn45)c3c2)cn1 [Example 92, 1-{[6-(4-cyanophenyl)-imidazo[1,2-a]pyridine]-3-sulfonyl}-6-[(1-methyl)-4-pyrazolyl]-1-H-pyrazolo[4,3-b]pyridine]	–	–	–	–
> 64.5%	76.8%	77.9%	76.1%	–	Cn1cc(-c2cnc3cnn(S(=O)(=O)c4cnc5ccc(-c6ccc7c(c6)OCCO7)cn45)c3c2)cn1 [Example 93, 1-{[6-[6-(1,4-benzodioxanyl)]-imidazo[1,2-a]pyridine]-3-sulfonyl}-6-[(1-methyl)-4-pyrazolyl]-1-H-pyrazolo[4,3-b]pyridine]	–	–	–	–
> 74.3%	55.7%	83.9%	72.1%	–	Cn1cc(-c2cnc3cnn(S(=O)(=O)c4cnc5ccc(-c6ccc(Cl)cc6)cn45)c3c2)cn1 [Example 94, 1-{[6-(4-chlorophenyl)-imidazo[1,2-a]pyridine]-3-sulfonyl}-6-[(1-methyl)-4-pyrazolyl]-1-H-pyrazolo[4,3-b]pyridine]	–	–	–	–
> 71.8%	61.5%	68.3%	56.6%	0.7 ± 0.1 nM	COc1ccc(-c2ccc3ncc(S(=O)(=O)n4ncc5ncc(-c6cnn(C)c6)cc54)n3c2)cc1OC [Example 96, 1-{[6-(3,4-dimethoxyphenyl)-imidazo[1,2-a]pyridine]-3-sulfonyl}-6-[(1-methyl)-4-pyrazolyl]-1-H-pyrazolo[4,3-b]pyridine]	–	–	–	–
> 77.9%	66.8%	74.3%	50.6%	1.4 ± 0.1 nM	Cn1cc(-c2cnc3cnn(S(=O)(=O)c4cnc5ccc(-c6ccc7c(c6)OCO7)cn45)c3c2)cn1 [Example 98, 1-{[6-[5-(1,2-methylenedioxyphenyl)]-imidazo[1,2-a]pyridine]-3-sulfonyl}-6-[(1-methyl)-4-pyrazolyl]-1-H-pyrazolo[4,3-b]pyridine]	–	–	–	–
> 64.5%	100%	–	100%	0.3 ± 0.1 nM	CNC(=O)c1ccc(-c2ccc3ncc(S(=O)(=O)n4ncc5ncc(-c6cnn(C)c6)cc54)n3c2)cc1F [Example 101, 1-{(6-(3-fluoro-4-methylaminocarbonylphenyl)-imidazo[1,2-a]pyridine)-3-sulfonyl}-6-[(1-methyl)-4-pyrazolyl]-1-H-pyrazolo[4,3-b]pyridine]	–	–	–	–
–	101%	–	104%	1.9 ± 0.1 nM	Cn1cc(-c2ccc3ncc(S(=O)(=O)n4ncc5ncc(-c6cn[nH]c6)cc54)n3c2)cn1 [Example 106, 1-{(6-[(1-methyl)-4-pyrazolyl]-imidazo[1,2-a]pyridine)-3-sulfonyl}-6-(4-pyrazolyl)-1-H-pyrazolo[4,3-b]pyridine]	37%	85.7%	–	–
